Assay results from patent publication US5824299A, “Modulation of endothelial cell proliferation with IP-10” (President & Fellows of Harvard College, priority 1995, dated 1998).

Molecular target: T1, murine IP10-AP (IP-10 alkaline phosphatase fusion protein) (UniProt P05187+P17515)
T1 construct: made in house; host or cells: NIH-3T3 clone 18.G5 (conditioned medium)
Assay: glycosaminoglycan inhibition of IP10-AP binding to A20 B cells
Conditions: 15 nM mIP10-AP, 2 hours on ice; for inhibition of IP10-AP binding: at a concentration 100× below 1 mg/ml
Description: 107 A20 cells were incubated with 15 nM mIP10-AP in the presence of the indicated concentrations of heparin (H), heparan sulfate (HS), chondroitin sulfate B (CSB) and chondroitin sulfate A (CSA) for 2 hours on ice. Cells were then washed and bound IP10-AP assayed.
Binding Assays. For non-adherent cells, […] were washed 1× with ice-cold binding buffer (HBSS/10 mM Hepes/0.1% ETSA) and resuspended in the indicated concentration of IP10-AP and competitors in a total of […] ice-cold binding buffer. Binding was carried out for 2 hrs on ice with occasional mixing. Cells were washed 5× with ice cold binding buffer by repeated centrifugation at 4° C. Cell bound AP activity was determined by lysing cells in […] 10 mM Tris (pH 8.0)/1% Triton X-100, heating at 65° C. for 10 min to inactivate cellular alkaline phosphatase, and then centrifuging at 14,000×g for 10 min. 50 ml of the soluble lysate was then mixed with 50 ml 2× SEAP buffer in a 96 well plate at room temperature and the colormetric product was assayed in a kinetic plate reader at A405. For adherent cells with higher numbers of binding sites, binding was determined in 6 well cluster plates. Cells were washed 2× with ice-cold binding buffer and incubated with the indicated concentration of IP10-AP and competitor in a total of 500 ml of ice-cold binding buffer for 2 hrs in the cold room on a rocker platform. […] Non-specific binding was determined in one of two ways. For the calculation of the equilibrium constant, non-specific binding was determined by adding […] at each concentration of IP10-AP and performing the binding experiments in parallel exactly as described above. Specific binding was determined by subtracting background from total binding. Specific binding data was analyzed with the binding equation B=(Bmax×F)/(Kd+F) (where B is bound ligand and F is free ligand) (28) using the program KaleidaGraph on a Macintosh computer. […] 125I-IP10 binding to cells was performed essentially as described above for IP10-AP binding except the cell pellet with bound IP-10 was counted in a gamma-counter. […]

T1 sequence (P17515+P05187 fused): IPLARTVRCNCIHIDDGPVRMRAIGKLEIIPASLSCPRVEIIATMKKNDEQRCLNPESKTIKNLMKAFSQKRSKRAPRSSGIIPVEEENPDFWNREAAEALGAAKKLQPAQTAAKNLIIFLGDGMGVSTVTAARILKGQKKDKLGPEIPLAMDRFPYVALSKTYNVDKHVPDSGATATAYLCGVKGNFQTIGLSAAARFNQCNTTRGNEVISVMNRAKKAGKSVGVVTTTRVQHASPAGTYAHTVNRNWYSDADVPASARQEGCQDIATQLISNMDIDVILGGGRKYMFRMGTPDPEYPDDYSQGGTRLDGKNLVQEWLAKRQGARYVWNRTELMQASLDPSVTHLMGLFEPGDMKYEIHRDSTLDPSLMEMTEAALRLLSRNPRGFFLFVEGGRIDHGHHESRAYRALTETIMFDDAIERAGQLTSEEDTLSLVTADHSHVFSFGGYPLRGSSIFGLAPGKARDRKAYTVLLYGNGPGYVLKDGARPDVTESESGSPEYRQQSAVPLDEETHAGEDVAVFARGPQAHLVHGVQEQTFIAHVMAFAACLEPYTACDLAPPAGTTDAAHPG

Substance | effect on IP10-AP binding (1 mg/ml) | inhibition of IP10-AP binding
chondroitin sulfate A | no effect | –
heparan sulfate | – | complete inhibition
heparin | – | complete inhibition
